{"source": "ChEMBL document CHEMBL1201862", "about": "“PubChem BioAssay data set” (2004)", "assay_in_all_cases": "NCI tumour cell line growth inhibition, 48 h", "key": {"[1]": {"test_system": "786-0"}, "[2]": {"test_system": "A498"}, "[3]": {"test_system": "ACHN"}, "[4]": {"test_system": "CAKI-1"}, "[5]": {"test_system": "CCRF-CEM"}, "[6]": {"test_system": "COLO 205"}, "[7]": {"test_system": "DU-145"}, "[8]": {"test_system": "EKVX"}, "[9]": {"test_system": "HCC 2998"}, "[10]": {"test_system": "HCT-116"}, "[11]": {"test_system": "HCT-15"}, "[12]": {"test_system": "HL-60"}, "[13]": {"test_system": "HOP-62"}, "[14]": {"test_system": "HOP-92"}, "[15]": {"test_system": "HT-29"}, "[16]": {"test_system": "IGROV-1"}, "[17]": {"test_system": "K562"}, "[18]": {"test_system": "LOX IMVI"}, "[19]": {"test_system": "M14"}, "[20]": {"test_system": "MCF7"}, "[21]": {"test_system": "MDA-MB-231"}, "[22]": {"test_system": "MDA-MB-435"}, "[23]": {"test_system": "MDA-N"}, "[24]": {"test_system": "MOLT-4"}, "[25]": {"test_system": "Malme-3M"}, "[26]": {"test_system": "NCI-H23"}, "[27]": {"test_system": "NCI-H460"}, "[28]": {"test_system": "NCI-H522"}, "[29]": {"test_system": "NCI/ADR-RES"}, "[30]": {"test_system": "OVCAR-3"}, "[31]": {"test_system": "OVCAR-4"}, "[32]": {"test_system": "OVCAR-5"}, "[33]": {"test_system": "OVCAR-8"}, "[34]": {"test_system": "PC-3"}, "[35]": {"test_system": "RPMI-8226"}, "[36]": {"test_system": "SF-268"}, "[37]": {"test_system": "SF-295"}, "[38]": {"test_system": "SF-539"}, "[39]": {"test_system": "SK-MEL-28"}, "[40]": {"test_system": "SK-MEL-2"}, "[41]": {"test_system": "SK-OV-3"}, "[42]": {"test_system": "SN12C"}, "[43]": {"test_system": "SNB-19"}, "[44]": {"test_system": "SNB-75"}, "[45]": {"test_system": "SR"}, "[46]": {"test_system": "SW-620"}, "[47]": {"test_system": "T47D"}, "[48]": {"test_system": "TK-10"}, "[49]": {"test_system": "U-251"}, "[50]": {"test_system": "UACC-257"}, "[51]": {"test_system": "UACC-62"}, "[52]": {"test_system": "UO-31"}, "[53]": {"test_system": "A549"}, "[54]": {"test_system": "KM12"}, "[55]": {"test_system": "NCI-H226"}, "[56]": {"test_system": "RXF 393"}, "[57]": {"test_system": "SK-MEL-5"}}, "note": "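All cell lines were grown in 96-well plates and treated with compound for 48 hours. Here, GI50 denotes the concentration required for 50% inhibition of growth.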 Activity calls are given as the source filed them. Cut-off read from the data, not from the text of the source: active = GI50 up to about 1.1 µM and inactive = higher. Where a SMILES comes first, the peptide text is derived from it. The star is where a group is joined. Boc = CC(C)(C)OC(=O)*", "data": [{"smiles": "CNC(=O)CNC(=O)C(NC(=O)CNC(=O)C1CCCN1C(=O)C(C)NC(=O)C(NC(=O)OC(C)(C)C)C(C)C)C(C)C", "note": "(centres undefined) (Boc-VAPGVG-NHMe; configuration not given here)", "values": [{"measurement": "GI50", "setting": "[1]", "result": "> 100 µM (inactive)"}, {"measurement": "GI50", "setting": "[2]", "result": "> 100 µM (inactive)"}, {"measurement": "GI50", "setting": "[3]", "result": "> 100 µM (inactive)"}, {"measurement": "GI50", "setting": "[4]", "result": "> 100 µM (inactive)"}, {"measurement": "GI50", "setting": "[5]", "result": "> 100 µM (inactive)"}, {"measurement": "GI50", "setting": "[6]", "result": "> 100 µM (inactive)"}, {"measurement": "GI50", "setting": "[7]", "result": "> 100 µM (inactive)"}, {"measurement": "GI50", "setting": "[8]", "result": "> 100 µM (inactive)"}, {"measurement": "GI50", "setting": "[9]", "result": "> 100 µM (inactive)"}, {"measurement": "GI50", "setting": "[10]", "result": "> 100 µM (inactive)"}, {"measurement": "GI50", "setting": "[11]", "result": "> 100", "unit": "µM"}, {"measurement": "GI50", "setting": "[12]", "result": "> 100 µM (inactive)"}, {"measurement": "GI50", "setting": "[13]", "result": "> 100 µM (inactive)"}, {"measurement": "GI50", "setting": "[14]", "result": "> 100 µM (inactive)"}, {"measurement": "GI50", "setting": "[15]", "result": "> 100 µM (inactive)"}, {"measurement": "GI50", "setting": "[16]", "result": "> 100 µM (inactive)"}, {"measurement": "GI50", "setting": "[17]", "result": "> 100 µM (inactive)"}, {"measurement": "GI50", "setting": "[18]", "result": "> 100 µM (inactive)"}, {"measurement": "GI50", "setting": "[19]", "result": "> 100 µM (inactive)"}, {"measurement": "GI50", "setting": "[20]", "result": "> 100 µM (inactive)"}, {"measurement": "GI50", "setting": "[21]", "result": "> 100 µM (inactive)"}, {"measurement": "GI50", "setting": "[22]", "result": "> 100 µM (inactive)"}, {"measurement": "GI50", "setting": "[23]", "result": "> 100 µM (inactive)"}, {"measurement": "GI50", "setting": "[24]", "result": "> 100 µM (inactive)"}, {"measurement": "GI50", "setting": "[25]", "result": "> 100 µM (inactive)"}, {"measurement": "GI50", "setting": "[26]", "result": "> 100 µM (inactive)"}, {"measurement": "GI50", "setting": "[27]", "result": "> 100 µM (inactive)"}, {"measurement": "GI50", "setting": "[28]", "result": "> 100 µM (inactive)"}, {"measurement": "GI50", "setting": "[29]", "result": "> 100 µM (inactive)"}, {"measurement": "GI50", "setting": "[30]", "result": "> 100 µM (inactive)"}, {"measurement": "GI50", "setting": "[31]", "result": "> 100 µM (inactive)"}, {"measurement": "GI50", "setting": "[32]", "result": "> 100 µM (inactive)"}, {"measurement": "GI50", "setting": "[33]", "result": "> 100 µM (inactive)"}, {"measurement": "GI50", "setting": "[34]", "result": "> 100 µM (inactive)"}, {"measurement": "GI50", "setting": "[35]", "result": "> 100 µM (inactive)"}, {"measurement": "GI50", "setting": "[36]", "result": "> 100 µM (inactive)"}, {"measurement": "GI50", "setting": "[37]", "result": "> 100 µM (inactive)"}, {"measurement": "GI50", "setting": "[38]", "result": "> 100 µM (inactive)"}, {"measurement": "GI50", "setting": "[39]", "result": "> 100 µM (inactive)"}, {"measurement": "GI50", "setting": "[40]", "result": "> 100 µM (inactive)"}, {"measurement": "GI50", "setting": "[41]", "result": "> 100 µM (inactive)"}, {"measurement": "GI50", "setting": "[42]", "result": "> 100 µM (inactive)"}, {"measurement": "GI50", "setting": "[43]", "result": "> 100 µM (inactive)"}, {"measurement": "GI50", "setting": "[44]", "result": "> 100 µM (inactive)"}, {"measurement": "GI50", "setting": "[45]", "result": "> 100 µM (inactive)"}, {"measurement": "GI50", "setting": "[46]", "result": "> 100 µM (inactive)"}, {"measurement": "GI50", "setting": "[47]", "result": "> 100 µM (inactive)"}, {"measurement": "GI50", "setting": "[48]", "result": "> 100 µM (inactive)"}, {"measurement": "GI50", "setting": "[49]", "result": "> 100 µM (inactive)"}, {"measurement": "GI50", "setting": "[50]", "result": "> 100 µM (inactive)"}, {"measurement": "GI50", "setting": "[51]", "result": "> 100 µM (inactive)"}, {"measurement": "GI50", "setting": "[52]", "result": "> 100 µM (inactive)"}]}, {"smiles": "CC1(C)CC(=O)C(C(CC(c2ccccc2)c2cc3c(cc2O)OCO3)C2=C(O)CC(C)(C)CC2=O)=C(O)C1", "note": "(centres undefined)", "values": [{"measurement": "GI50", "setting": "[2]", "result": "> 10 µM (inactive)"}, {"measurement": "GI50", "setting": "[53]", "result": "> 10 µM (inactive)"}, {"measurement": "GI50", "setting": "[3]", "result": "> 10 µM (inactive)"}, {"measurement": "GI50", "setting": "[4]", "result": "> 10 µM (inactive)"}, {"measurement": "GI50", "setting": "[6]", "result": "> 10 µM (inactive)"}, {"measurement": "GI50", "setting": "[7]", "result": "> 10 µM (inactive)"}, {"measurement": "GI50", "setting": "[8]", "result": "> 10 µM (inactive)"}, {"measurement": "GI50", "setting": "[10]", "result": "> 10 µM (inactive)"}, {"measurement": "GI50", "setting": "[11]", "result": "> 10", "unit": "µM"}, {"measurement": "GI50", "setting": "[14]", "result": "> 10 µM (inactive)"}, {"measurement": "GI50", "setting": "[15]", "result": "> 10 µM (inactive)"}, {"measurement": "GI50", "setting": "[16]", "result": "> 10 µM (inactive)"}, {"measurement": "GI50", "setting": "[54]", "result": "> 10 µM (inactive)"}, {"measurement": "GI50", "setting": "[19]", "result": "> 10 µM (inactive)"}, {"measurement": "GI50", "setting": "[21]", "result": "> 10 µM (inactive)"}, {"measurement": "GI50", "setting": "[22]", "result": "> 10 µM (inactive)"}, {"measurement": "GI50", "setting": "[23]", "result": "> 10 µM (inactive)"}, {"measurement": "GI50", "setting": "[55]", "result": "> 10 µM (inactive)"}, {"measurement": "GI50", "setting": "[26]", "result": "> 10 µM (inactive)"}, {"measurement": "GI50", "setting": "[29]", "result": "> 10 µM (inactive)"}, {"measurement": "GI50", "setting": "[30]", "result": "> 10 µM (inactive)"}, {"measurement": "GI50", "setting": "[31]", "result": "> 10 µM (inactive)"}, {"measurement": "GI50", "setting": "[32]", "result": "> 10 µM (inactive)"}, {"measurement": "GI50", "setting": "[33]", "result": "> 10 µM (inactive)"}, {"measurement": "GI50", "setting": "[34]", "result": "> 10 µM (inactive)"}, {"measurement": "GI50", "setting": "[56]", "result": "> 10 µM (inactive)"}, {"measurement": "GI50", "setting": "[36]", "result": "> 10 µM (inactive)"}, {"measurement": "GI50", "setting": "[37]", "result": "> 10 µM (inactive)"}, {"measurement": "GI50", "setting": "[38]", "result": "> 10 µM (inactive)"}, {"measurement": "GI50", "setting": "[57]", "result": "> 10 µM (inactive)"}, {"measurement": "GI50", "setting": "[42]", "result": "> 10 µM (inactive)"}, {"measurement": "GI50", "setting": "[43]", "result": "> 10 µM (inactive)"}, {"measurement": "GI50", "setting": "[44]", "result": "> 10 µM (inactive)"}, {"measurement": "GI50", "setting": "[46]", "result": "> 10 µM (inactive)"}, {"measurement": "GI50", "setting": "[48]", "result": "> 10 µM (inactive)"}, {"measurement": "GI50", "setting": "[49]", "result": "> 10 µM (inactive)"}, {"measurement": "GI50", "setting": "[52]", "result": "> 10 µM (inactive)"}]}]}
